Experimental data: patent US6737383B1, “Herbicidal oxadiazolidines” (priority 1999, dated 2004)

Assays:
purple nutsedge = test: Test D purple nutsedge; assay type: in vivo, Cyperus rotundus; conditions: Preemergence, 0 to 100 scale
Method in brief: (§1)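 Herbicide screen in the greenhouse. A non-phytotoxic solvent mixture with surfactant carried the test chemical; in pre-emergence tests it went onto the soil of pots seeded no more than a day earlier. Injury was scored by eye 14 to 21 days after application, 0 to 100.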

common ragweed = test: Test D common ragweed; assay type: in vivo, Ambrosia elatior; conditions: Preemergence, 0 to 100 scale
Method in brief: as §1

surinam grass = test: Test D surinam grass; assay type: in vivo, Brachiaria decumbens; conditions: Preemergence, 0 to 100 scale
Method in brief: as §1

Johnson grass = test: Test D Johnson grass; assay type: in vivo, Sorghum halepense; conditions: Preemergence, 0 to 100 scale
Method in brief: as §1

chickweed = test: Test E chickweed; assay type: in vivo, Stellaria media; conditions: Preemergence
guineagrass = test: Test D guineagrass; assay type: in vivo, Panicum maximum; conditions: Preemergence, 0 to 100 scale
Method in brief: as §1

sandbur = test: Test D sandbur; assay type: in vivo, Cenchrus echinatus; conditions: Preemergence, 0 to 100 scale
Method in brief: as §1

Spanishneedles = test: Test D Spanishneedles; assay type: in vivo, Bidens bipinnata; conditions: Preemergence, 0 to 100 scale
Method in brief: as §1

common pursiane = test: Test D common purslane; assay type: in vivo, Portulaca oleracea
Method in brief: as §1

pitted morningglory = test: Test D pitted morningglory; assay type: in vivo, Ipomoea lacunosa; conditions: Preemergence, 0 to 100 scale
Method in brief: as §1

itchgrass = test: Test D itchgrass; assay type: in vivo, Rottboellia exaltata; conditions: Preemergence, 0 to 100 scale
Method in brief: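 Scoring used a 0–100 visual injury scale, with 0 meaning no effect and 100 complete control, assessed 14–21 days after application alongside untreated pots. Preemergence treatments went onto sandy loam surfaces of separately potted seeds within a day of sowing.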

Green foxtail = test: Test D green foxtail; assay type: in vivo; conditions: Preemergence, 0 to 100 scale
Method in brief: as §1

dallisgrass = test: Test D dallisgrass; assay type: in vivo, Paspalum dilatatum; conditions: Preemergence, 0 to 100 scale
Method in brief: as §1

tall mallow = test: Test D tall mallow; assay type: in vivo, Malva sylvestris; conditions: Preemergence, 0 to 100 scale
Method in brief: as §1

large crabgrass = test: Test D large crabgrass; assay type: in vivo, Digitaria sanguinalis; conditions: Preemergence, 0 to 100 scale
Method in brief: as §1

bermuda-grass = test: Test D bermudagrass; assay type: in vivo, Cynodon dactylon; conditions: Preemergence, 0 to 100 scale
Method in brief: as §1

[1] = Rate 16 g/ha, 0 no injury, 100 complete control
[2] = Rate 32 g/ha, 0 no injury, 100 complete control
[3] = Rate 64 g/ha, 0 no injury, 100 complete control
[4] = Rate 125 g/ha, 0 no injury, 100 complete control

How did the “Plant response rating, Purple nutsedge” value (purple nutsedge; [1]) turn out when CC(C)N(C(=O)n1oc(=O)n(C(C)C)c1=O)c1ccc(F)cc1 [Compound 131] was run?
The value was 0.

And the “Plant response rating, Purple nutsedge” value (purple nutsedge; [2])?
The value was 0.

What about the “Purple nutsedge plant response rating” value (purple nutsedge; [3]) of the same molecule?
The value was 40.

What about the “Purple nutsedge plant response rating” value (purple nutsedge; [4]) of the same molecule?
The value was 60.

What about the “Plant response rating, Purple nutsedge” value (purple nutsedge; Rate 250 g/ha) of the same molecule?
The value was 85.

What about the “Plant response rating, Purple nutsedge” value (purple nutsedge; Rate 500 g/ha) of the same molecule?
Its value is 85.

What about the “Plant response rating, C. ragweed” value (common ragweed; [1]) of the same molecule?
The value was 0.

What about the “Plant response rating, C. ragweed” value (common ragweed; [2]) of the same molecule?
Its value is 0.

And the “Plant response rating, C. ragweed” value (common ragweed; [3])?
The value was 30.

What about the “Plant response rating, C. ragweed” value (common ragweed; [4]) of the same molecule?
The value was 30.

And the “Plant response rating, C. ragweed” value (common ragweed; Rate 250 g/ha)?
Its value is 100.

What about the “Plant response rating, C. ragweed” value (common ragweed; Rate 500 g/ha) of the same molecule?
The value was 100.

What about the “Plant response rating, Surinam grass” value (surinam grass; [1]) of the same molecule?
Its value is 20.

And the “Plant response rating, Surinam grass” value (surinam grass; [2])?
Its value is 75.

What about the “Surinam grass plant response rating” value (surinam grass; [3]) of the same molecule?
The value was 85.

What about the “Surinam grass plant response rating” value (surinam grass; [4]) of the same molecule?
Its value is 100.

What about the “Plant response rating, Surinam grass” value (surinam grass; Rate 250 g/ha) of the same molecule?
Its value is 100.

What about the “Plant response rating, Surinam grass” value (surinam grass; Rate 500 g/ha) of the same molecule?
Its value is 100.

And the “Plant response rating Johnsongrass” value (Johnson grass; [1])?
Its value is 10.

And the “Plant response rating Johnsongrass” value (Johnson grass; [2])?
The value was 40.

What about the “Plant response rating Johnsongrass” value (Johnson grass; [3]) of the same molecule?
The value was 65.

What about the “Plant response rating Johnsongrass” value (Johnson grass; [4]) of the same molecule?
The value was 90.

And the “Plant response rating Johnsongrass” value (Johnson grass; Rate 250 g/ha)?
The value was 98.

What about the “Plant response rating Johnsongrass” value (Johnson grass; Rate 500 g/ha) of the same molecule?
The value was 100.

What about the “Plant response rating, Chickweed” value (chickweed; Rate 125 g/ha, 0 to 100 scale (0 no effect, 100 complete control)) of the same molecule?
The value was 100.

What about the “Chickweed plant response rating (0 to 100 scale)” value (chickweed; Rate 250 g/ha) of the same molecule?
Its value is 100.

What about the “Plant response rating, Chickweed” value (chickweed; Rate 500 g/ha, 0 to 100 scale where 0 is no effect and 100 is complete control) of the same molecule?
The value was 100.

What about the “Plant response rating, Guineagrass” value (guineagrass; [1]) of the same molecule?
Its value is 0.

And the “Plant response rating, Guineagrass” value (guineagrass; [2])?
The value was 100.

And the “Plant response rating, Guineagrass” value (guineagrass; [3])?
Its value is 100.

And the “Plant response rating, Guineagrass” value (guineagrass; [4])?
Its value is 100.

What about the “Plant response rating, Guineagrass” value (guineagrass; Rate 250 g/ha) of the same molecule?
The value was 100.

And the “Plant response rating, Guineagrass” value (guineagrass; Rate 500 g/ha)?
The value was 100.

And the “Plant response rating, Sandbur” value (sandbur; [1])?
The value was 0.

What about the “Plant response rating, Sandbur” value (sandbur; [2]) of the same molecule?
Its value is 60.

What about the “Sandbur plant response rating” value (sandbur; [3]) of the same molecule?
Its value is 85.

And the “Sandbur plant response rating” value (sandbur; [4])?
Its value is 100.

And the “Plant response rating, Sandbur” value (sandbur; Rate 250 g/ha)?
Its value is 100.

What about the “Plant response rating, Sandbur” value (sandbur; Rate 500 g/ha) of the same molecule?
Its value is 100.

And the “Plant response rating, Spanishneedles” value (Spanishneedles; [1])?
Its value is 0.

And the “Plant response rating, Spanishneedles” value (Spanishneedles; [2])?
Its value is 0.

And the “Spanishneedles plant response rating” value (Spanishneedles; [3])?
Its value is 40.

And the “Spanishneedles plant response rating” value (Spanishneedles; [4])?
The value was 60.

And the “Plant response rating, Spanishneedles” value (Spanishneedles; Rate 500 g/ha)?
Its value is 90.

And the “Plant response rating, C. purslane” value (common pursiane; Rate 16 g/ha; Preemergence; 0 to 100 scale, 0 no injury, 100 complete control)?
Its value is 0.

What about the “Plant response rating, C. purslane” value (common pursiane; Rate 32 g/ha; Preemergence; 0 to 100 scale, 0 no injury, 100 complete control) of the same molecule?
Its value is 0.

And the “Plant response rating, C. purslane” value (common pursiane; Rate 64 g/ha, Preemergence; 0 to 100 scale, 0 no injury, 100 complete control)?
Its value is 0.

What about the “Plant response rating, C. purslane” value (common pursiane; Rate 125 g/ha, Preemergence; 0 to 100 scale, 0 no injury, 100 complete control) of the same molecule?
Its value is 0.

And the “Plant response rating, C. purslane” value (common pursiane; Rate 250 g/ha; Preemergence; 0 to 100 scale)?
The value was 10.

What about the “Plant response rating, C. purslane” value (common pursiane; Rate 500 g/ha, Preemergence; 0 to 100 scale) of the same molecule?
The value was 100.

And the “Plant response rating, C. purslane” value (common pursiane; Rate 500 g/ha; Preemergence; 0 to 100 scale)?
Its value is 10.

And the “Plant response rating, P. morninglory” value (pitted morningglory; [1])?
The value was 0.

What about the “Plant response rating, P. morninglory” value (pitted morningglory; [2]) of the same molecule?
Its value is 0.

What about the “Plant response rating, P. morninglory” value (pitted morningglory; [3]) of the same molecule?
Its value is 0.

What about the “Plant response rating, P. morninglory” value (pitted morningglory; [4]) of the same molecule?
Its value is 50.

And the “Plant response rating, P. morninglory” value (pitted morningglory; Rate 250 g/ha)?
The value was 85.

And the “Plant response rating, P. morninglory” value (pitted morningglory; Rate 500 g/ha)?
Its value is 100.

What about the “Plant response rating, Itchgrass” value (itchgrass; [1]) of the same molecule?
The value was 30.

And the “Plant response rating, Itchgrass” value (itchgrass; [2])?
Its value is 50.

What about the “Plant response rating, Itchgrass” value (itchgrass; [3]) of the same molecule?
The value was 90.

What about the “Plant response rating, Itchgrass” value (itchgrass; [4]) of the same molecule?
Its value is 90.

And the “Plant response rating, Itchgrass” value (itchgrass; Rate 250 g/ha)?
Its value is 100.

And the “Plant response rating, Itchgrass” value (itchgrass; Rate 500 g/ha)?
Its value is 100.

And the “Plant response rating, Green foxtail” value (Green foxtail; Rate 250 g/ha)?
Its value is 100.

What about the “Plant response rating, Green foxtail” value (Green foxtail; Rate 500 g/ha) of the same molecule?
The value was 100.

And the “Plant response rating, Dallisgrass” value (dallisgrass; [1])?
Its value is 85.

And the “Plant response rating, Dallisgrass” value (dallisgrass; [2])?
Its value is 95.

And the “Plant response rating, Dallisgrass” value (dallisgrass; [3])?
The value was 100.

And the “Plant response rating, Dallisgrass” value (dallisgrass; [4])?
The value was 100.

And the “Plant response rating, Dallisgrass” value (dallisgrass; Rate 250 g/ha)?
Its value is 100.

And the “Plant response rating, Dallisgrass” value (dallisgrass; Rate 500 g/ha)?
Its value is 100.

What about the “Plant response rating, Tall Mallow” value (tall mallow; [1]) of the same molecule?
The value was 30.

And the “Plant response rating, Tall Mallow” value (tall mallow; [2])?
The value was 30.

And the “Tall Mallow plant response rating” value (tall mallow; [3])?
The value was 80.

And the “Tall Mallow plant response rating” value (tall mallow; [4])?
Its value is 80.

And the “Plant response rating, Tall Mallow” value (tall mallow; Rate 250 g/ha)?
The value was 90.

What about the “Plant response rating, Tall Mallow” value (tall mallow; Rate 500 g/ha) of the same molecule?
The value was 100.

And the “Plant response rating Large crabgrass” value (large crabgrass; [1])?
Its value is 100.

What about the “Plant response rating Large crabgrass” value (large crabgrass; [2]) of the same molecule?
The value was 100.

And the “Plant response rating Large crabgrass” value (large crabgrass; [3])?
The value was 100.

What about the “Plant response rating Large crabgrass” value (large crabgrass; [4]) of the same molecule?
The value was 100.

What about the “Plant response rating Large crabgrass” value (large crabgrass; Rate 250 g/ha) of the same molecule?
The value was 100.

What about the “Plant response rating Large crabgrass” value (large crabgrass; Rate 500 g/ha) of the same molecule?
Its value is 100.

What about the “Plant response rating, Bermudagrass” value (bermuda-grass; [1]) of the same molecule?
Its value is 100.

What about the “Plant response rating, Bermudagrass” value (bermuda-grass; [2]) of the same molecule?
Its value is 100.

And the “Plant response rating, Bermudagrass” value (bermuda-grass; [3])?
The value was 100.

And the “Plant response rating, Bermudagrass” value (bermuda-grass; [4])?
Its value is 100.

And the “Plant response rating, Bermudagrass” value (bermuda-grass; Rate 250 g/ha)?
Its value is 100.

And the “Plant response rating, Bermudagrass” value (bermuda-grass; Rate 500 g/ha)?
The value was 100.
